Experimental data: ChEMBL document CHEMBL4004782, “A review on tacrine-based scaffolds as multi-target drugs (MTDLs) for Alzheimer's disease” (Eur J Med Chem, 2017)

Experiments:
[1] = biological target: T1, Acetylcholinesterase (Bos taurus) (UniProt P23795); assay: Displacement of propidium iodide from bovine erythrocyte AchE at 3 uM incubated for 6 hrs followed by addition of propidium iodide and measured after 15 mins by thioflavin T-fluorescence assay
T1 sequence (whole entry): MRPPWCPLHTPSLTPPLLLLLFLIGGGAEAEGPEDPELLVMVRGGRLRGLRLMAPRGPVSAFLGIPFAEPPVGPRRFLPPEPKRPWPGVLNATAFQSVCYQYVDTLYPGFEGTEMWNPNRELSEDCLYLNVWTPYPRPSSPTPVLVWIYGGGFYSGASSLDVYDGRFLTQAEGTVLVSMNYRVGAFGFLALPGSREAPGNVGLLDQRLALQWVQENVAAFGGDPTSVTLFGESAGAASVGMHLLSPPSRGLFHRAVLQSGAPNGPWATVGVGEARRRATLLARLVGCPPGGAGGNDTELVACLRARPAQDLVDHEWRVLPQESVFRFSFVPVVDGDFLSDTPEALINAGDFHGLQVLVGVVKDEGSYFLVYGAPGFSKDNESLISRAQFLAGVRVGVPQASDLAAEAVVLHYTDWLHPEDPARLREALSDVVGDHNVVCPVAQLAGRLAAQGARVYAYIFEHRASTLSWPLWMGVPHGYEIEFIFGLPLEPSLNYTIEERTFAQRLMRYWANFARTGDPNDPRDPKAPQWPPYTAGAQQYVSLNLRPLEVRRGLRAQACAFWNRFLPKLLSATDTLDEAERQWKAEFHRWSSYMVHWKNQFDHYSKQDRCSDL

[2] = biological target: T1, Acetylcholinesterase (Bos taurus); assay: Displacement of propidium iodide from bovine erythrocyte AchE at 0.3 uM incubated for 6 hrs followed by addition of propidium iodide and measured after 15 mins by thioflavin T-fluorescence assay
[3] = biological target: T1, Acetylcholinesterase (Bos taurus); assay: Displacement of propidium iodide from bovine erythrocyte AchE at 1 uM incubated for 6 hrs followed by addition of propidium iodide and measured after 15 mins by thioflavin T-fluorescence assay
Acetylcholinesterase [4] = biological target: T2, Acetylcholinesterase (Rattus norvegicus, UniProt P37136); assay: Inhibition of rat cortex AchE using acetylthiocholine iodide as substrate by Ellman's method
T2 sequence (P37136 whole entry): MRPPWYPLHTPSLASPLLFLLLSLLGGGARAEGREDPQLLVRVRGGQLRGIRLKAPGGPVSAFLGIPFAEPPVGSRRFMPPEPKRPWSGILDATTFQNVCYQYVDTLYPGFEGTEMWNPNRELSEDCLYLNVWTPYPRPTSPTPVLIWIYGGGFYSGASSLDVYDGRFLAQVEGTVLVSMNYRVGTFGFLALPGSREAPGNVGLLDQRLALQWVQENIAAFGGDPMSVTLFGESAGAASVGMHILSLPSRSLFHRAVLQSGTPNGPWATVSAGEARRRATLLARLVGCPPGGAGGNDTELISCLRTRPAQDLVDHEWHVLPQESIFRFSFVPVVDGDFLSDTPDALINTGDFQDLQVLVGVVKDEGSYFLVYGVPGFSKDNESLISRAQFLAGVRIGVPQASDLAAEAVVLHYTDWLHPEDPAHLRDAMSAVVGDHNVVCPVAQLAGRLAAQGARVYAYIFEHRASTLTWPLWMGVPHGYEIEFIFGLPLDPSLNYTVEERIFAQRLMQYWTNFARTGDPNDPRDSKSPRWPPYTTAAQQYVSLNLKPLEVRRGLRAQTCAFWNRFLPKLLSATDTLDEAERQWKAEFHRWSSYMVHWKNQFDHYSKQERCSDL

[5] = Selectivity index, ratio of IC50 for human serum BChE to IC50 for rat cortex AchE
Acetylcholinesterase [6] = biological target: T3, Acetylcholinesterase (Bos taurus, UniProt P23795); assay: Inhibition of bovine erythrocyte AchE using acetylthiocholine as substrate by Ellman's method
T3 sequence (P23795 whole entry): T1 sequence (whole entry)

Cholinesterase = Cholinesterase (Homo sapiens, UniProt P06276); assay: Inhibition of BuChE (unknown origin)
Acetylcholinesterase [7] = biological target: Acetylcholinesterase (Homo sapiens, UniProt P22303); assay: Inhibition of human AchE-induced amyloid beta (1 to 40) aggregation after 48 hrs by thioflavin T fluorescence spectroscopic method
Sequence of Acetylcholinesterase (Homo sapiens, UniProt P22303) (P22303 whole entry): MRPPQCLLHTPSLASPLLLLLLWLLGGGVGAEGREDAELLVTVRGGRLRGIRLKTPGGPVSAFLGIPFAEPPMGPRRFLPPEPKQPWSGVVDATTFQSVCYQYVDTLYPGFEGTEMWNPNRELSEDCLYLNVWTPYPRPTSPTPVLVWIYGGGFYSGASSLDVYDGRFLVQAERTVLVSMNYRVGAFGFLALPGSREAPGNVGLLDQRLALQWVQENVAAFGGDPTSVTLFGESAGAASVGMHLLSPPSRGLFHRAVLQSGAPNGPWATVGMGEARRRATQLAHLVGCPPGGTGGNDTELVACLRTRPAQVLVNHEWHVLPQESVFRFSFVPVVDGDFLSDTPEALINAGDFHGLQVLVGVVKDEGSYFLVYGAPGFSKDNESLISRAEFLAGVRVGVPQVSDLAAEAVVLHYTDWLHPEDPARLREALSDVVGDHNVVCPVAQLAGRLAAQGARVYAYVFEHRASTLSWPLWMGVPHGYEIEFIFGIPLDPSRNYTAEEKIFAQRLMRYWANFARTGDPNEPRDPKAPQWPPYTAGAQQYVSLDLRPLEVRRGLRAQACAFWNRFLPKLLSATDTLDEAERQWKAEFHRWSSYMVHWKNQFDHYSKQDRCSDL

Sequence of Cholinesterase (P06276 whole entry): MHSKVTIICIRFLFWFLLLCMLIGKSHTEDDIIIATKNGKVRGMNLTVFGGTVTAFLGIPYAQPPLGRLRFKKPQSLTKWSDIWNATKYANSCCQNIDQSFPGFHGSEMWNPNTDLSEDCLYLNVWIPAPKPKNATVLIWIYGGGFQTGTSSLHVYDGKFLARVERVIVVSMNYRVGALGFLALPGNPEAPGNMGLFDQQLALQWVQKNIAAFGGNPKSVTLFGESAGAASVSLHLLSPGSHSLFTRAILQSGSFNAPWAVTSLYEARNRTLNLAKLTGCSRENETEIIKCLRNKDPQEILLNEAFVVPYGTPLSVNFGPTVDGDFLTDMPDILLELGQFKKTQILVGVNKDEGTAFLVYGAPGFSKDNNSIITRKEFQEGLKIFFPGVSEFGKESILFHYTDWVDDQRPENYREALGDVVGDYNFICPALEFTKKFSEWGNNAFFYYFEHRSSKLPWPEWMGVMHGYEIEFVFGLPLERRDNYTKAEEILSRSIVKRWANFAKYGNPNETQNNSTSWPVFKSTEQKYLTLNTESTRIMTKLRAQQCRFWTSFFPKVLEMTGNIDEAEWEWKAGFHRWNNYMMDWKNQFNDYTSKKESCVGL

O=C(CCCCCCNc1c2c(nc3cc(Cl)ccc13)CCCC2)NCCc1c[nH]c2ccccc12
inhibition [1]: 35% | inhibition [2]: 42% | inhibition [3]: 34%

c1ccc2c(NCCCCCCCCNc3c4c(nc5c3CCCC5)CCCC4)c3c(nc2c1)CCCC3
IC50 (Acetylcholinesterase [4]): 200 pM | Ratio IC50 [5]: 221

Clc1ccc2c(NCCCCCCCCNc3c4c(nc5ccccc35)CCCC4)c3c(nc2c1)CCCC3
IC50 (Acetylcholinesterase [4]): 70 pM | Ratio IC50 [5]: 371

O=C(CCCCCNc1c2c(nc3ccccc13)CCCC2)NCCc1c[nH]c2ccccc12
IC50 (Acetylcholinesterase [6]): 1000 pM | inhibition [1]: 35% | inhibition [2]: 42% | inhibition [3]: 34%

Cc1c(C)c2c(c(C)c1O)CCC(C)(C(=O)NCCCCCCCCNc1c3c(nc4cc(Cl)ccc14)CCCC3)O2 (stereo not given)
IC50 (Cholinesterase): 54000 pM

Clc1ccc2c(NCCCCCCCCCNc3c4c(nc5c3CCCC5)CCCC4)c3c(nc2c1)CCCC3
IC50 (Acetylcholinesterase [4]): 300 pM | Ratio IC50 [5]: 647

O=C(CCCC1CCSS1)NCCCNc1c2c(nc3cc(Cl)ccc13)CCCC2 (stereo not given)
IC50 (Acetylcholinesterase [7]): 253000 pM
